In patent US9801901B2, “Alginate oligomers for use in overcoming multidrug resistance in bacteria” (priority 2009, dated 2017):
Values after ≈ are worked out from the molar mass of the structure shown. Read-outs that look alike come from different tables or passages of the source. Marks after values point to notes of the source that are not given here.

Legend:
[1] = system: PA01 Pseudomonas aeruginosa ATCC 15692; assay: MIC assay, two-fold antibiotic dilutions in CAMHB with alginate oligomer, no visible growth; type: cell-based; conditions: PA01 non MDR
[2] = system: Pseudomonas aeruginosa ATCC 39324, mucoid type strain (R79); assay: MIC assay, CAMHB with alginate oligomer, no visible growth; type: cell-based; conditions: R79 non MDR (muc.)
[3] = system: Pseudomonas aeruginosa CFA 24-1, clinical mucoid strain (R80); assay: as above; type: cell-based; conditions: Table 4, R80 non MDR (muc.)
[4] = system: Pseudomonas aeruginosa MDR R22 from China (V1); assay: as above; type: cell-based; conditions: Table 4, V1 MDR (China)
Source text: (§1) The study described in Example 1 was repeated with the following strains of bacteria and antibiotics as detailed in Tables 4, 5 and 6.

V5 AIM-1 E. coli = assay: as above; type: cell-based; conditions: Table 4, V5 MDR E. coli
Source text: as §1

[5] = system: Pseudomonas aeruginosa MDR 301 from Poland (V2); assay: as above; type: cell-based; conditions: Table 4, V2 MDR (Pol.)
[6] = system: Klebsiella pneumoniae KP05 506 from India (V3); assay: as above; type: cell-based; conditions: Klebsiella pneumoniae, Table 4; V3 MDR (India); OligoCF-5/20 +10% G; read-out: MIC
[7] = system: Acinetobacter baumannii MDR ACB from Libya (V4); assay: as above; type: cell-based; conditions: Table 4, V4 MDR (Libya)
Source text: as §1
The study described in Example 1 was repeated with the following strains of Acinetobacter baumannii, antibiotics and M-block alginate oligomer in place of OligoG CF-5/20 as detailed in Table 7. The M-block oligomer is 100% M with a DPn of 15 to 18,

[8] = system: V9 (Egypt) Acinetobacter baumannii; assay: as above; type: cell-based; conditions: Table 5, V9 MDR Acin. baum
[9] = system: V10 (Egypt) Acinetobacter lwoffii; assay: as above; type: cell-based; conditions: Table 5, V10 MDR Acin. lwoff
V11 5702 (Wales) E. coli = assay: as above; type: cell-based; conditions: Table 5, V11 MDR E.coli
[10] = system: V12 5725 (Wales) Klebsiella pneumoniae; assay: as above; type: cell-based; conditions: Table 5, V12 MDR Kleb pneu
[11] = system: V23 1322 Burkholderia cepacia; assay: as above; type: cell-based
V22 6056 Acinetobacter = assay: as above; type: cell-based, Acinetobacter lwoffii; conditions: Table 5, V22 MDR Acin. lwoff
[12] = Pseudomonas aeruginosa, OligoCF-5/20 0G, read-out: MIC
[13] = Pseudomonas aeruginosa, OligoCF-5/20 +2% G, read-out: MIC
[14] = Pseudomonas aeruginosa, OligoCF-5/20 +10% G, read-out: MIC
[15] = Pseudomonas aeruginosa, OligoCF-5/20 +6% G, read-out: MIC
[16] = Acinetobacter baumannii, OligoCF-5/20 0G, read-out: MIC
[17] = Table 5, V23 MDR Burk cep, OligoCF-5/20 +6% G
[18] = Table 5, V23 MDR Burk cep, OligoCF-5/20 +10% G

CC[C@H]1OC(=O)[C@H](C)[C@@H](O[C@H]2C[C@@](C)(OC)[C@@H](O)[C@H](C)O2)[C@H](C)[C@@H](O[C@@H]2O[C@H](C)C[C@H](N(C)C)[C@H]2O)[C@](C)(OC)C[C@@H](C)C(=O)[C@H](C)[C@@H](O)[C@]1(C)O [Clarithromycin]
MIC ([1]; Pseudomonas aeruginosa, ATCC15692, Table 4, OligoCF-5/20 +2% G, read-out: MIC): 128 µg/mL (≈ 171 µM) | MIC ([1]; Pseudomonas aeruginosa, ATCC15692, Table 4, OligoCF-5/20 +6% G, read-out: MIC): 64 µg/mL (≈ 85.6 µM) | MIC ([1]; Pseudomonas aeruginosa, ATCC15692, Table 4, OligoCF-5/20 +10% G, read-out: MIC): 32 µg/mL (≈ 42.8 µM) | MIC ([2]; Pseudomonas aeruginosa, ATCC39324, Table 4, OligoCF-5/20 +2% G, read-out: MIC): 128 µg/mL (≈ 171 µM) | MIC ([2]; Pseudomonas aeruginosa, ATCC39324, Table 4, OligoCF-5/20 +6% G, read-out: MIC): 32 µg/mL (≈ 42.8 µM) | MIC ([2]; Pseudomonas aeruginosa, ATCC39324, Table 4, OligoCF-5/20 +10% G, read-out: MIC): 4 µg/mL (≈ 5.35 µM) | MIC [3, 12]: 1020 µg/mL (≈ 1370 µM) | MIC [3, 13]: 512 µg/mL (≈ 685 µM) | MIC [3, 14]: 64 µg/mL (≈ 85.6 µM) | MIC [4, 13]: 128 µg/mL (≈ 171 µM) | MIC [4, 15]: 64 µg/mL (≈ 85.6 µM) | MIC [4, 14]: 32 µg/mL (≈ 42.8 µM) | MIC (V5 AIM-1 E. coli; Escherichia coli, OligoCF-5/20 0G): 4 µg/mL (≈ 5.35 µM) | MIC (V5 AIM-1 E. coli; Escherichia coli, OligoCF-5/20 +2% G): 4 µg/mL (≈ 5.35 µM) | MIC (V5 AIM-1 E. coli; Escherichia coli, OligoCF-5/20 +6% G): ≤ 1 µg/mL | MIC (V5 AIM-1 E. coli; Escherichia coli, OligoCF-5/20 +10% G): ≤ 1 µg/mL | MIC [5, 12]: 512 µg/mL (≈ 685 µM) | MIC [5, 15]: 128 µg/mL (≈ 171 µM) | MIC [5, 14]: 32 µg/mL (≈ 42.8 µM) | MIC [6]: 128 µg/mL (≈ 171 µM) | MIC [7, 16]: 8 µg/mL (≈ 10.7 µM) | MIC ([7]; Acinetobacter baumannii, OligoCF-5/20 +2% G, read-out: MIC): 4 µg/mL (≈ 5.35 µM) | MIC ([7]; Acinetobacter baumannii, OligoCF-5/20 +6% G, read-out: MIC): ≤ 1 µg/mL | MIC ([7]; Acinetobacter baumannii, OligoCF-5/20 +10% G, read-out: MIC): ≤ 1 µg/mL | MIC [8, 16]: 16 µg/mL (≈ 21.4 µM) | MIC ([8]; OligoCF-5/20 +2% G): 4^† μg/ml | MIC ([8]; OligoCF-5/20 +6% G): 2^† μg/ml | MIC ([8]; OligoCF-5/20 +10% G): 1^† μg/ml | MIC ([9]; Acinetobacter lwoffii, OligoCF-5/20 0G, read-out: MIC): < 0.5 µg/mL | MIC ([9]; OligoCF-5/20 +6% G): <0.5 µg/mL | MIC ([9]; OligoCF-5/20 +10% G): <0.5 µg/mL | MIC (V11 5702 (Wales) E. coli; Escherichia coli, OligoCF-5/20 0G, read-out: MIC): 512 µg/mL (≈ 685 µM) | MIC (V11 5702 (Wales) E. coli; OligoCF-5/20 +2% G): 128^† μg/ml | MIC ([10]; Klebsiella pneumoniae, OligoCF-5/20 0G, read-out: MIC): 512 µg/mL (≈ 685 µM) | MIC ([10]; OligoCF-5/20 +10% G): 512 µg/mL (≈ 685 µM) | MIC ([11]; Burkholderia cepacia, Table 5, V23 MDR Burk cep, OligoCF-5/20 0G, read-out: MIC): 512 µg/mL (≈ 685 µM) | MIC ([11]; Burkholderia cepacia, Table 6, V23, Experiment 2 (18-03-10), OligoCF-5/20 0G, read-out: MIC): 128 µg/mL (≈ 171 µM) | MIC ([11]; Burkholderia cepacia, Table 6, V23, Experiment 3 (19-03-10), OligoCF-5/20 0G, read-out: MIC): 64 µg/mL (≈ 85.6 µM) | MIC [11, 17]: 128^† μg/ml | MIC [11, 18]: 32^† μg/ml | MIC ([11]; Table 6, V23, Experiment 1 (18-03-10), OligoCF-5/20 +6% G): 128^† μg/ml | MIC ([11]; Table 6, V23, Experiment 1 (18-03-10), OligoCF-5/20 +10% G): 128^† μg/ml | MIC ([11]; Table 6, V23, Experiment 2 (18-03-10), OligoCF-5/20 +2% G): 128 µg/mL (≈ 171 µM) | MIC ([11]; Table 6, V23, Experiment 2 (18-03-10), OligoCF-5/20 +6% G): 32^† μg/ml | MIC ([11]; Table 6, V23, Experiment 2 (18-03-10), OligoCF-5/20 +10% G): 16^† μg/ml | MIC ([11]; Table 6, V23, Experiment 3 (19-03-10), OligoCF-5/20 +2% G): 512^‡ μg/ml | MIC ([11]; Table 6, V23, Experiment 3 (19-03-10), OligoCF-5/20 +6% G): 512^‡ μg/ml | MIC ([11]; Table 6, V23, Experiment 3 (19-03-10), OligoCF-5/20 +10% G): 512‡ μg/ml

Spiramycin
MIC ([1]; Table 4, OligoCF-5/20 0G): >1024^† μg/ml | MIC ([1]; Table 4, OligoCF-5/20 +10% G): 512^† μg/ml | MIC ([2]; Table 4, OligoCF-5/20 0G): >1024^† μg/ml | MIC ([2]; Table 4, OligoCF-5/20 +10% G): 256^† μg/ml | MIC ([3]; OligoCF-5/20 0G): >1024^† μg/ml | MIC ([4]; OligoCF-5/20 0G): >1024^† μg/ml | MIC ([4]; OligoCF-5/20 +10% G): 512^† μg/ml | MIC (V5 AIM-1 E. coli; OligoCF-5/20 0G): 32^† μg/ml | MIC (V5 AIM-1 E. coli; OligoCF-5/20 +2% G): 32 µg/mL | MIC (V5 AIM-1 E. coli; OligoCF-5/20 +6% G): 16^† μg/ml | MIC (V5 AIM-1 E. coli; OligoCF-5/20 +10% G): 8† μg/ml | MIC ([5]; OligoCF-5/20 0G): >1024^† μg/ml | MIC ([7]; OligoCF-5/20 0G): 512^† μg/ml | MIC ([7]; OligoCF-5/20 +2% G): 64^† μg/ml | MIC ([7]; OligoCF-5/20 +6% G): 64^† μg/ml | MIC ([7]; OligoCF-5/20 +10% G): 32^† μg/ml | MIC ([8]; OligoCF-5/20 0G): 256^† μg/ml | MIC ([8]; OligoCF-5/20 +2% G): 64^† μg/ml | MIC ([8]; OligoCF-5/20 +6% G): 32^† μg/ml | MIC ([8]; OligoCF-5/20 +10% G): 16^† μg/ml | MIC ([9]; OligoCF-5/20 0G): <4 µg/mL | MIC ([9]; OligoCF-5/20 +2% G): <4 µg/mL | MIC ([9]; OligoCF-5/20 +6% G): <4 µg/mL | MIC ([9]; OligoCF-5/20 +10% G): <4 µg/mL | MIC (V11 5702 (Wales) E. coli; OligoCF-5/20 0G): 128^† μg/ml | MIC (V11 5702 (Wales) E. coli; OligoCF-5/20 +2% G): 64^† μg/ml | MIC (V11 5702 (Wales) E. coli; OligoCF-5/20 +6% G): 32^† μg/ml | MIC (V11 5702 (Wales) E. coli; OligoCF-5/20 +10% G): 32^† μg/ml | MIC ([10]; OligoCF-5/20 0G): 67^† μg/ml | MIC ([10]; OligoCF-5/20 +2% G): 64 µg/mL | MIC ([10]; OligoCF-5/20 +6% G): 32^† μg/ml | MIC ([10]; OligoCF-5/20 +10% G): 16† μg/ml | MIC (V22 6056 Acinetobacter; OligoCF-5/20 0G): <4 µg/mL | MIC (V22 6056 Acinetobacter; OligoCF-5/20 +2% G): <4 µg/mL | MIC (V22 6056 Acinetobacter; OligoCF-5/20 +6% G): <4 µg/mL | MIC (V22 6056 Acinetobacter; OligoCF-5/20 +10% G): <4 µg/mL | MIC ([11]; Table 5, V23 MDR Burk cep, OligoCF-5/20 0G): >4096^† μg/ml | MIC ([11]; Table 5, V23 MDR Burk cep, OligoCF-5/20 +2% G): 2048^† μg/ml | MIC [11, 17]: 2048^† μg/ml | MIC [11, 18]: 1024^† μg/ml
